Where two headings read alike, the source gives them in different places. Blank lines part the entries; values can stand above or below the compound they belong to.
Legend:
[1] = target: T1, FGF-2 (Homo sapiens, UniProt P09038); experiment: Competition SPR assay: inhibition of FGF-2 interaction with immobilized biotinylated heparin; type: binding; details: for IC50: immobilized biotinylated heparin, FGF-2 50 nM, read-out: IC50 (amount of mimetic needed to reduce the FGF-2 binding by 50 %)
Protocol: A competition SPR assay was performed to establish the SAR between the full panel of 27 HS‐like pseudo‐hexasaccharides and FGF‐2 (Figure 4). Biotinylated heparin was immobilized on the biosensor, and the pseudo‐hexasaccharides (10 μM) were mixed with FGF‐2 (50 nM) individually. […] The trend of 33, 33 z and 33 m in the order of decreasing FGF‐2 affinity is consistent with that observed in the direct binding SPR study (Figures 3 and S1). The IC50 values of several disaccharides and pseudo‐tetrasaccharides with FGF‐2 have also been measured. The disaccharides bound weakly with FGF‐2, and the fully sulfated pseudo‐tetrasaccharide gave the strongest binding among the pseudo‐tetrasaccharides tested, which in turn was much weaker than that of the pseudo‐hexasaccharide 33 (Figure S2).
Figure 4 Inhibition of 27 pseudo‐hexasaccharides (33, 33 a–z) on FGF‐2 interaction with heparin through a competition SPR assay. Biotinylated heparin was immobilized on the SPR biosensor. For the control well, FGF‐2 (50 nM) was flown over the sensor and the intensity of the signal due to FGF‐2 binding was set as a reference (100 %). […] Normalized FGF‐2 binding % was calculated based on the following formula: (signal intensity of FGF‐2/pseudo‐hexasaccharide)/(signal intensity of FGF‐2 only)×100 %. […]
FGF-2 was immobilized on sensor chip by primary amine coupling reaction. […] Solutions of various concentrations of pseudo-hexasaccharides 33, 33z, and 33m dissolved in 0.01% Tween 20 PBS buffer were injected over the FGF-2 chip at a flow rate of 30 µL/min, and the responses to binding were recorded .
Aqueous NaCl solution (2.0 M) was employed for regeneration to achieve baseline status after each run. Sensorgrams were evaluated using the Qdat program. […] The KD values were calculated by the Qdat software. […]
Heparin SPR chip was prepared by immobilizing biotinylated heparin on SA sensor chip (Cytiva, Uppsala, Sweden).[13] […] Normalized FGF - 2 binding % was calculated based on the following formula: (signal intensity o f FGF-2/pseudohexasaccharide)/(signal intensity of FGF -2 only) x 100%. […]

[2] = target: T1, FGF-2; experiment: Direct binding SPR with FGF-2 immobilized on CDH sensor chip
Protocol: The direct binding of FGF‐2 to the HS mimetics was measured by surface plasmon resonance (SPR). FGF‐2 was immobilized on a carboxymethyl dextran high capacity (CDH) sensor chip surface through carbodiimide mediated coupling. O‐/N‐Sulfated (33), O‐sulfated (33 z) and N‐sulfated (33 m) pseudo‐hexasaccharides were selected as analytes in addition to the heparin polysaccharide (MW: 17.2 kDa). […] Seeberger and co‐workers studied the binding of HS hexasaccharides with FGF‐2 through a powerful glycan microarray technology.[36] […] The N‐acetylated, O‐sulfated hexasaccharide 35 gave binding of ≈20 % of that of heparin, while the hexasaccharide 36 having three N‐sulfates only gave the lowest signal (<2%) binding to FGF‐2. The trend of decreasing FGF‐2 affinity from N‐ and O‐sulfated, to O‐sulfated only, to N‐sulfated only sequences of HS hexasaccharides (34, 35, 36) correlates well with those of the pseudo‐hexasaccharides 33, 33 z, and 33 m.
Figure 3 a) The SPR sensorgram of FGF‐2 binding with compound 33. The concentrations of 33 from top to bottom curves were 750 nM, 500 nM, 250 nM, 100 nM, 10 nM, and 1 nM. Each experiment was repeated at least three times with the representative data shown. The vertical line indicates the time when the dissociation process started. b) Table of K D values determined for 33, 33 z, and 33 m through the FGF‐2 SPR binding assay. c) Structures of compounds 35–38.
Measurements of binding constants of pseudo-hexasaccharides 33, 33z, and 33m with FGF-2 […]
FGF-2 was immobilized on sensor chip by primary amine coupling reaction. The surface of a CDH sensor chip (FortéBio, Inc., Molecular Devices, USA) was activated using freshly mixed N-hydroxysuccimide (NHS; 0.05 M) and 1-(3-(dimethylamino)propyl)-ethylcarbodiimide (EDC; 0.2 M) (1/1,v/v) in water, followed by the injection of FGF -2 (50 µg/ml) in PBS buffer. The remaining active esters were quenched by ethanolamine (1.0 M). Solutions of various concentrations of pseudo-hexasaccharides 33, 33z, and 33m dissolved in 0.01% Tween 20 PBS buffer were injected over the FGF-2 chip at a flow rate of 30 µL/min, and the responses to binding were recorded .
Aqueous NaCl solution (2.0 M) was employed for regeneration to achieve baseline status after each run. Sensorgrams were evaluated using the Qdat program. The response data due to association and dissociation were processed in Qdat using a reference surface to correct for any bulk refractive index changes and blank injections for double referencing . The binding profiles were fit globally into a 1:2 interaction model. The KD values were calculated by the Qdat software.
Analysis of the inhibition of pseudo-hexasaccharides on heparin/FGF-2 interaction using […]

[3] = target: T1, FGF-2; design: method as in PMID 17066397; details: glycan microarray, glycan concentration 16 μM; cited from earlier work
[4] = target: T1, FGF-2; design: method as in PMID 28651046, PMID 24959968; details: read-out: KD of FGF-2 binding; cited from earlier work
[5] = immobilized FGF-2, 1:2 interaction model, read-out: dissociation constant (KD) of binding to FGF-2

T1 sequence (P09038 134-288 limits assumed, species assumed): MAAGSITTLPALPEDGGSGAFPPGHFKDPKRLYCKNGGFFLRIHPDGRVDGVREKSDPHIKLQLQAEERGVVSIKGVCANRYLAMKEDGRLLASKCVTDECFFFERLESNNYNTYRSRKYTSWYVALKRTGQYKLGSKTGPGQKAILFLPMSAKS

inhibition of FGF-2/heparin interaction (in words) ([1]; under the experimental condition): did not exhibit any inhibition | binding to FGF-2 (in words) ([2]; immobilized FGF-2, at 3 μM): little binding | Kd ([2]; immobilized FGF-2, value printed in μM under head KD value (nM), read-out: KD value): > 3 µM
SMILES: CC(=O)NCCO[C@@H]1O[C@@H](C(=O)O)[C@@H](O[C@H]2O[C@H](CO)[C@@H](OCCC(=O)NCCO[C@@H]3O[C@@H](C(=O)O)[C@@H](O[C@H]4O[C@H](CO)[C@@H](OCCC(=O)NCCO[C@@H]5O[C@@H](C(=O)O)[C@@H](O[C@H]6O[C@H](CO)[C@@H](OCCC(=O)O)[C@H](O)[C@H]6NS(=O)(=O)O)[C@H](O)[C@H]5O)[C@H](O)[C@H]4NS(=O)(=O)O)[C@H](O)[C@H]3O)[C@H](O)[C@H]2NS(=O)(=O)O)[C@H](O)[C@H]1O [33 m]

IC50 [1]: ~100000 nM | Kd [2, 5]: 0.94 µM
SMILES: CC(=O)NCCO[C@@H]1O[C@@H](C(=O)O)[C@@H](O[C@H]2O[C@H](COS(=O)(=O)O)[C@@H](OCCC(=O)NCCO[C@@H]3O[C@@H](C(=O)O)[C@@H](O[C@H]4O[C@H](COS(=O)(=O)O)[C@@H](OCCC(=O)NCCO[C@@H]5O[C@@H](C(=O)O)[C@@H](O[C@H]6O[C@H](COS(=O)(=O)O)[C@@H](OCCC(=O)O)[C@H](O)[C@H]6NC(C)=O)[C@H](O)[C@H]5OS(=O)(=O)O)[C@H](O)[C@H]4NC(C)=O)[C@H](O)[C@H]3OS(=O)(=O)O)[C@H](O)[C@H]2NC(C)=O)[C@H](O)[C@H]1OS(=O)(=O)O [33 z]

IC50 [1]: 1700 nM | Kd [2, 5]: 0.0196 µM
SMILES: CC(=O)NCCO[C@@H]1O[C@@H](C(=O)O)[C@@H](O[C@H]2O[C@H](COS(=O)(=O)O)[C@@H](OCCC(=O)NCCO[C@@H]3O[C@@H](C(=O)O)[C@@H](O[C@H]4O[C@H](COS(=O)(=O)O)[C@@H](OCCC(=O)NCCO[C@@H]5O[C@@H](C(=O)O)[C@@H](O[C@H]6O[C@H](COS(=O)(=O)O)[C@@H](OCCC(=O)O)[C@H](O)[C@H]6NS(=O)(=O)O)[C@H](O)[C@H]5OS(=O)(=O)O)[C@H](O)[C@H]4NS(=O)(=O)O)[C@H](O)[C@H]3OS(=O)(=O)O)[C@H](O)[C@H]2NS(=O)(=O)O)[C@H](O)[C@H]1OS(=O)(=O)O [compound 33]

SMILES: NCCS(=O)(=O)CCCCCO[C@@H]1O[C@@H](C(=O)O)[C@@H](O[C@H]2O[C@H](COS(=O)(=O)O)[C@@H](O[C@@H]3O[C@@H](C(=O)O)[C@@H](O[C@H]4O[C@H](COS(=O)(=O)O)[C@@H](O[C@@H]5O[C@@H](C(=O)O)[C@@H](O[C@H]6O[C@H](COS(=O)(=O)O)[C@@H](O)[C@H](O)[C@H]6NS(=O)(=O)O)[C@H](O)[C@H]5OS(=O)(=O)O)[C@H](O)[C@H]4NS(=O)(=O)O)[C@H](O)[C@H]3OS(=O)(=O)O)[C@H](O)[C@H]2NS(=O)(=O)O)[C@H](O)[C@H]1OS(=O)(=O)O [compound 34]
binding to FGF-2 as compared to heparin polysaccharide [3]: ≈ 60%

SMILES: CC(=O)N[C@H]1[C@@H](O[C@H]2[C@H](O)[C@@H](OS(=O)(=O)O)[C@H](OCCCCCN)O[C@H]2C(=O)O)O[C@H](COS(=O)(=O)O)[C@@H](O[C@@H]2O[C@@H](C(=O)O)[C@@H](O[C@H]3O[C@H](COS(=O)(=O)O)[C@@H](O[C@@H]4O[C@@H](C(=O)O)[C@@H](O[C@H]5O[C@H](COS(=O)(=O)O)[C@@H](O)[C@H](O)[C@H]5NC(C)=O)[C@H](O)[C@H]4OS(=O)(=O)O)[C@H](O)[C@H]3NC(C)=O)[C@H](O)[C@H]2OS(=O)(=O)O)[C@@H]1O [compound 35]
binding to FGF-2 as compared to heparin polysaccharide [3]: ≈ 20%

SMILES: NCCCCCO[C@@H]1O[C@@H](C(=O)O)[C@@H](O[C@H]2O[C@H](CO)[C@@H](O[C@@H]3O[C@@H](C(=O)O)[C@@H](O[C@H]4O[C@H](CO)[C@@H](O[C@@H]5O[C@@H](C(=O)O)[C@@H](O[C@H]6O[C@H](CO)[C@@H](O)[C@H](O)[C@H]6NS(=O)(=O)O)[C@H](O)[C@H]5O)[C@H](O)[C@H]4NS(=O)(=O)O)[C@H](O)[C@H]3O)[C@H](O)[C@H]2NS(=O)(=O)O)[C@H](O)[C@H]1O [compound 36]
binding to FGF-2 as compared to heparin polysaccharide [3]: < 2%

SMILES: CO[C@@H]1O[C@@H](C(=O)O)[C@@H](O[C@H]2O[C@H](COS(=O)(=O)O)[C@@H](O)[C@H](O)[C@H]2NS(=O)(=O)O)[C@H](O)[C@H]1OS(=O)(=O)O [compound 37]
Kd [4]: 17500 nM

SMILES: NCCCCCO[C@H]1O[C@H](COS(=O)(=O)O)[C@@H](O[C@@H]2O[C@@H](C(=O)O)[C@@H](O[C@H]3O[C@H](COS(=O)(=O)O)[C@@H](O[C@@H]4O[C@@H](C(=O)O)[C@@H](O)[C@H](O)[C@H]4O)[C@H](O)[C@H]3NS(=O)(=O)O)[C@H](O)[C@H]2OS(=O)(=O)O)[C@H](O)[C@H]1NS(=O)(=O)O [compound 38]
Kd [4]: 1200 nM
